Measurements published in BindingDB's records for doi:10.1016/j.bmcl.2009.06.075 (Pfizer, 2009).

Test: Antagonist activity at human P2Y12 receptor assessed as inhibition of ADP-induced platelet-rich plasma aggregation by turbidimetric method

SMILES | IC50 [µM]
CCOC(=O)N1CCN(C(=O)[C@H](CCC(=O)O)NC(=O)c2cc(OCCN)cc(-c3ccccc3)n2)CC1 [(4S)4-({[4-(2-Aminoethoxy)6-phenylpyridin-2-yl]carbonyl}-amino)5-[4-(ethoxycarbonyl)iperazin-1-yl]-5-oxopentanoicAcid] | 7.5
CCCCCOC(=O)N1CCN(C(=O)[C@H](CCC(=O)O)NC(=O)c2cc(OCCO)cc(-c3ccccc3)n2)CC1 [(4S)4-({[4-(2-Hydroxyethoxy)6-phenylpyridin-2-yl]carbonyl}-amino)5-oxo-5-{4-[(pentyloxy)carbonyl]piperazin-1-yl}pentanoicAcid] | 11.5
CCCCCOC(=O)N1CCN(C(=O)[C@H](CCC(=O)O)NC(=O)c2cc(OCCOC)cc(-c3ccccc3)n2)CC1 [(4S)4-({[4-(2-Methoxyethoxy)6-phenylpyridin-2-yl]carbonyl}amino)5-oxo-5-{4-[(pentyloxy)carbonyl]piperazin-1-yl}pentanoic Acid] | 4.3
CCCCCOC(=O)N1CCN(C(=O)[C@H](CCC(=O)O)NC(=O)c2cc(N3CCC(CN)CC3)cc(-c3ccccc3)n2)CC1 [(4S)4-[({4-[4-(Aminomethyl)piperidin-1-yl]-6-phenylpyridin-2-yl}carbonyl)amino]-5-oxo-5-{4-[(pentyloxy)carbonyl]piperazin-1-yl}pentanoic Acid] | 0.77
CCCCCOC(=O)N1CCN(C(=O)[C@H](CCC(=O)O)NC(=O)c2cc(N3CCC(COC)CC3)cc(-c3ccccc3)n2)CC1 [(4S)4-[({4-[4-(Methoxymethyl)piperidin-1-yl]-6-phenylpyridin-2-yl}carbonyl)amino]-5-oxo-5-{4-[(pentyloxy)carbonyl]piperazin-1-yl}pentanoic Acid] | 3.9
CCCCOc1cc(C(=O)N[C@@H](CCC(=O)O)C(=O)N2CCN(C(=O)OCC)CC2)nc(-c2ccccc2)c1 [(4S)4-{[(4-Butoxy-6-phenylpyridin-2-yl)carbonyl]amino}-5-[4-(ethoxycarbonyl)iperazin-1-yl]-5-oxopentanoic Acid] | 33.9
CCCCCOC(=O)N1CCN(C(=O)[C@H](CCC(=O)O)NC(=O)c2cc(OCCCC)cc(-c3ccccc3)n2)CC1 [(4S)4-{[(4-Butoxy-6-phenylpyridin-2-yl)carbonyl]amino}-5-oxo-5-{4-[(pentyloxy)carbonyl]piperazin-1-yl}pentanoic Acid] | 28.4
CCCOC(=O)N1CCN(C(=O)[C@H](CCC(=O)O)NC(=O)c2cccc(-c3ccccc3)n2)CC1 [(4S)5-Oxo-4-{[(6-phenylpyridin-2-yl)carbonyl]amino}-5-[4-(propoxycarbonyl)iperazin-1-yl]pentanoic Acid] | 62
CCCCCOC(=O)N1CCN(C(=O)[C@H](CCC(=O)O)NC(=O)c2cc(OC3CCNCC3)cc(-c3ccccc3)n2)CC1 [(4S)5-Oxo-5-{4-[(pentyloxy)carbonyl]piperazin-1-yl}-4-({[6-phenyl-4-(piperidin-4-yloxy)yridin-2-yl]carbonyl}amino)entanoicAcid] | 0.55
Cc1cccc(N2CCN(C(=O)[C@H](CCC(=O)O)NC(=O)c3cccc(-c4ccccc4)n3)CC2)c1 [(4S)5-[4-(3-Methylphenyl)piperazin-1-yl]-5-oxo-4-{[(6-phenylpyridin-2-yl)carbonyl]amino}pentanoicAcid] | > 100
CCCCOC(=O)N1CCN(C(=O)[C@H](CCC(=O)O)NC(=O)c2cc(OCCOC)cc(-c3ccccc3)n2)CC1 [(4S)5-[4-(Butoxycarbonyl)iperazin-1-yl]-4-({[4-(2-methoxyethoxy)6-phenylpyridin-2-yl]carbonyl}amino)5-oxopentanoicAcid] | 4.4
CCCCOC(=O)N1CCN(C(=O)[C@H](CCC(=O)O)NC(=O)c2cc(OCCCC)cc(-c3ccccc3)n2)CC1 [(4S)5-[4-(Butoxycarbonyl)iperazin-1-yl]-4-{[(4-butoxy-6-phenylpyridin-2-yl)carbonyl]amino}-5-oxopentanoic Acid] | 26.9
CCOC(=O)N1CCN(C(=O)[C@H](CCC(=O)O)NC(=O)c2cc(OCCO)cc(-c3ccccc3)n2)CC1 [(4S)5-[4-(Ethoxycarbonyl)iperazin-1-yl]-4-({[4-(2-hydroxyethoxy)6-phenylpyridin-2-yl]carbonyl}amino)5-oxopentanoicAcid] | 7.6
CCOC(=O)N1CCN(C(=O)[C@H](CCC(=O)O)NC(=O)c2cc(OCCCO)cc(-c3ccccc3)n2)CC1 [(4S)5-[4-(Ethoxycarbonyl)iperazin-1-yl]-4-({[4-(3-hydroxypropoxy)6-phenylpyridin-2-yl]carbonyl}amino)5-oxopentanoic Acid] | 9
CCOC(=O)N1CCN(C(=O)[C@H](CCC(=O)O)NC(=O)c2cc(N3CCC(O)CC3)cc(-c3ccccc3)n2)CC1 [(4S)5-[4-(Ethoxycarbonyl)piperazin-1-yl]-4-({[4-(4-hydroxypiperidin-1-yl)6-phenylpyridin-2-yl]carbonyl}amino)5-oxopentanoicAcid] | 9.8
CCOC(=O)N1CCN(C(=O)[C@H](CCC(=O)O)NC(=O)c2cc(NC)cc(-c3ccccc3)n2)CC1 [(4S)5-[4-(Ethoxycarbonyl)piperazin-1-yl]-4-({[4-(methylamino)6-phenylpyridin-2-yl]carbonyl}amino)5-oxopentanoic Acid] | 45
CCOC(=O)N1CCN(C(=O)[C@H](CCC(=O)O)NC(=O)c2cc(N3CCC(COC)CC3)cc(-c3ccccc3)n2)CC1 [(4S)5-[4-(Ethoxycarbonyl)piperazin-1-yl]-4-[({4-[4-(methoxymethyl)piperidin-1-yl]-6-phenylpyridin-2-yl}carbonyl)amino]-5-oxopentanoic Acid] | 9.9
CCOC(=O)N1CCN(C(=O)[C@H](CCC(=O)O)NC(=O)c2cc(N3CCC(N4CCCC4)CC3)cc(-c3ccccc3)n2)CC1 [(4S)5-[4-(Ethoxycarbonyl)piperazin-1-yl]-5-oxo-4-({[6-phenyl-4-(4-pyrrolidin-1-ylpiperidin-1-yl)pyridin-2-yl]carbonyl}amino)pentanoic Acid] | 2
CCCCCCCCOC(=O)N1CCN(C(=O)[C@H](CCC(=O)O)NC(=O)c2cccc(-c3ccccc3)n2)CC1 [(4S)5-{4-[(Octyloxy)carbonyl]piperazin-1-yl}-5-oxo-4-{[(6-phenylpyridin-2-yl)carbonyl]amino}pentanoic Acid] | > 100
CCOC(=O)N1CCN(C(=O)[C@H](CCC(=O)O)NC(=O)c2cc(OC(CC)C(=O)N(CC)CC)cc(-c3ccccc3)n2)CC1 (stereo partly drawn) [(4S)-4-(4-(1-(diethylamino)-1-oxobutan-2-yloxy)-6-phenylpicolinamido)-5-(4-(ethoxycarbonyl)piperazin-1-yl)-5-oxopentanoic acid] | 3
Cc1cccc(N2CCN(C(=O)[C@H](CCC(=O)O)NC(=O)c3cc(-c4ccccc4)cc(-c4ccccc4)n3)CC2)c1 [(S)-4-(4,6-diphenylpicolinamido)-5-oxo-5-(4-m-tolylpiperazin-1-yl)pentanoic acid] | > 100
CCOC(=O)N1CCN(C(=O)[C@H](CCC(=O)O)NC(=O)c2cc(NCCN(C)C)cc(-c3ccccc3)n2)CC1 [(S)-4-(4-(2-(dimethylamino)ethylamino)-6-phenylpicolinamido)-5-(4-(ethoxycarbonyl)piperazin-1-yl)-5-oxopentanoic acid] | 36
CC(C)OC(=O)N1CCN(C(=O)[C@H](CCC(=O)O)NC(=O)c2cc(OCCO)cc(-c3ccccc3)n2)CC1 [(S)-4-(4-(2-hydroxyethoxy)-6-phenylpicolinamido)-5-(4-(isopropoxycarbonyl)piperazin-1-yl)-5-oxopentanoic acid] | 25.6
